PMC3344887 (PLoS ONE, 2012)

Experiments:
healthy subjects [1] = assay: Visual Analog Scales, subjective drug effects, clinical study; type: in vivo, humans
Description: (§1) The washout periods between the sessions were at least 10 days long.
(§2) Identical placebo (lactose) capsules were prepared. […] Drugs were administered without food.
(§3) The psychometric measures included Visual Analog Scales (VAS), [10], the Adjective Mood Rating Scale (AMRS), and 5-Dimensions of Altered States of Consciousness (5D-ASC), [23]. […] The VASs were presented as 100 mm horizontal lines marked “not at all" on the left and “extremely" on the right. The VASs for “closeness to others," “open," and “talkative" were bidirectional (±50 mm). The VASs were administered 4 h before and 0, 0.33, 1, 1.5, 2, 2.5, 3, 3.5, 4, and 5 h after MDMA or placebo administration. […] The AMRS contains subscales for activity, extroversion and introversion, well-being, emotional excitation, anxiety-depression, and dreaminess. The 5D-ASC rating scale measures alterations in mood, perception, experience of self in relation to the environment, and thought disorder. The 5D-ASC rating scale comprises five subscales or dimensions and 11 lower-order scales. The 5D-ASC dimension “oceanic boundlessness" (OB, 27 items) measures derealization and depersonalization associated with positive emotional states, ranging from heightened mood to euphoric exaltation. […] The global ASC score was determined by adding the OB, AED, and VR scores. The 5D-ASC scale was administered 4 h after MDMA or placebo administration.
(§4) Clinical data values were transformed to differences from baseline. Peak effects (Emax) were determined for repeated measures. Emax values were compared using General Linear Models repeated-measures analysis of variance, with drug as within-subject factor, using Statistica 6.0 software (StatSoft, Tulsa, OK). Tukey post hoc comparisons were performed based on significant main effects of treatment. Additional analyses of variance were performed, with period as factor to exclude period effects. Correlation analyses were performed using Pearson’s correlations. The criterion for significance was p<0.05. Mean arterial pressure (MAP) was calculated from diastolic blood pressure and systolic blood pressure using the following formula: MAP = DBP+(SBP - DBP)/3.

healthy subjects [2] = assay: Adjective Mood Rating Scale (AMRS), clinical study; type: in vivo, humans; details: peak change from baseline, mean±SEM, 16 subjects
Description: as §1, §2, §3, §4

healthy subjects [3] = assay: 5-Dimensions of Altered States of Consciousness (5D-ASC), clinical study; type: in vivo, humans; details: placebo-placebo vs placebo-MDMA
Description: as §1, §2, §3

healthy subjects [4] = assay: Circulating plasma catecholamines, clinical study; type: in vivo, humans; details: peak change from baseline, mean±SEM, 16 subjects
Description: as §1, §2
Plasma concentrations of copeptin were also determined in this study as reported elsewhere. […] No hydrolysis was performed. Thus, the values for HMMA represent the drug concentrations of the non-conjugated metabolite. All blood samples were collected on ice and centrifuged within 10 min at 4°C. The plasma was then stored at –20°C until the analysis.

healthy subjects [5] = assay: Physiologic measures (blood pressure, heart rate, body temperature), clinical study; type: in vivo, humans; details: peak change from baseline, mean±SEM, 16 subjects
Description: as §1, §2
(§5) Physiologic measures were assessed repeatedly 4, 3, 2, and 1 h before and 0, 0.33, 0.66, 1, 1.5, 2, 2.5, 3, 4, 5, and 6 h after MDMA or placebo administration. Heart rate, systolic blood pressure, and diastolic blood pressure were measured using an OMRON M7 blood pressure monitor (OMRON Healthcare Europe, Hoofddorp, The Netherlands). Measures were taken twice per time point with an interval of 1 min, and the average was used for the analysis. Core (tympanic) temperature was assessed using a GENIUS 2 ear thermometer (Tyco Healthcare Group, Watertown, NY). […] Adverse effects were assessed using the List of Complaints (LC), which consists of 66 items that yield a total adverse effects score and reliably measure physical and general discomfort.
as §4

healthy subjects [6] = assay: Adverse effects, List of Complaints, clinical study
Description: as §1, §2, §5

HEK 293 cells = assay: Toxilight toxicity assay, cell integrity; type: cell-based, human
NET [7] = molecular target: T1, NET (Homo sapiens, UniProt P23975); details: % of plasma sample dilution, undiluted plasma = 100%; plasma 120 min after MDMA/placebo; mean±SEM
SERT = SERT (Homo sapiens, UniProt P31645); details: % of plasma sample dilution, undiluted plasma = 100%; plasma 120 min after MDMA/placebo; mean±SEM
DAT [8] = molecular target: T2, DAT (Homo sapiens, UniProt Q01959); details: % of plasma sample dilution, undiluted plasma = 100%; plasma 120 min after MDMA/placebo
[9] = parameters: method as in earlier work; details: cited from earlier work
DAT [10] = molecular target: T2, DAT; assay: cell-based
[11] = cited from earlier work
NET [12] = molecular target: T1, NET; assay: Radioligand binding, [3H]-nisoxetine, HEK 293 membranes; parameters: expressed in transfected cells; host or cells: HEK 293 cells (Invitrogen), stably transfected
DAT [13] = molecular target: T2, DAT; assay: Radioligand binding, [3H]-WIN35,428, HEK 293 membranes; parameters: expressed in transfected cells; host or cells: HEK 293 cells (Invitrogen), stably transfected
NET [14] = molecular target: T1, NET; assay: [3H]-NE uptake inhibition, method A (silicon oil); type: cell-based; parameters: expressed in transfected cells; host or cells: HEK 293 cells (Invitrogen), stably transfected
[15] = peak change from baseline, mean±SEM, 16 subjects

T2 sequence (Q01959 whole entry): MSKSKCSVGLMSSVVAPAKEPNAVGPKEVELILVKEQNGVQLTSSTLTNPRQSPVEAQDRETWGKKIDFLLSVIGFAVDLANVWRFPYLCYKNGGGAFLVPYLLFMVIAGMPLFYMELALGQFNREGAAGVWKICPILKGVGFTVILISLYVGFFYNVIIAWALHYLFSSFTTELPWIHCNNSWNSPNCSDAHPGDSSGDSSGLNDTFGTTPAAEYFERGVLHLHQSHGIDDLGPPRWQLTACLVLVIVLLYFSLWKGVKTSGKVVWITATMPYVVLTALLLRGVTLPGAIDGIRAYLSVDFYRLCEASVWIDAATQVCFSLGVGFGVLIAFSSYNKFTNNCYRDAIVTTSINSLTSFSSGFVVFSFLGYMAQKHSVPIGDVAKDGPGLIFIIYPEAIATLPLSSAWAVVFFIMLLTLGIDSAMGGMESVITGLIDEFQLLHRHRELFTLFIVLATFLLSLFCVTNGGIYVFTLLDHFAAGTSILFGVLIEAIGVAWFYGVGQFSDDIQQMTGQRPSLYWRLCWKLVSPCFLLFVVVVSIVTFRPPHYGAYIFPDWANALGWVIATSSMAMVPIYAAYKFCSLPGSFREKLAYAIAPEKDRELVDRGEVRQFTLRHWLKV
T1 sequence (P23975 whole entry): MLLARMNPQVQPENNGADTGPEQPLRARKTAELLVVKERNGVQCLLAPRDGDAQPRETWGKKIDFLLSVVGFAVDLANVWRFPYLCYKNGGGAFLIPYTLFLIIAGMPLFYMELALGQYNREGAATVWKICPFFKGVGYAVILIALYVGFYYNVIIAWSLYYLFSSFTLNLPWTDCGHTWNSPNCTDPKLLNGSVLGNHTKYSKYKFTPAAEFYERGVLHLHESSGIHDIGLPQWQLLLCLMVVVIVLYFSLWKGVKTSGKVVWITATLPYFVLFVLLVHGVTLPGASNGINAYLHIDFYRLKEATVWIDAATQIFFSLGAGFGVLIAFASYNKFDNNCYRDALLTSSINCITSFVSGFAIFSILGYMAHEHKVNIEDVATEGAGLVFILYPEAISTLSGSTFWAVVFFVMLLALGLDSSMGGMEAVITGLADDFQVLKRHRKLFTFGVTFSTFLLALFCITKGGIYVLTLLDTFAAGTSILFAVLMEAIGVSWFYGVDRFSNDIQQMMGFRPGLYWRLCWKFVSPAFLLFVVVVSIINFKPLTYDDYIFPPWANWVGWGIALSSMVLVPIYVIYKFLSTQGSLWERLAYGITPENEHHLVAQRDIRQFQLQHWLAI
Sequence of SERT (P31645 whole entry): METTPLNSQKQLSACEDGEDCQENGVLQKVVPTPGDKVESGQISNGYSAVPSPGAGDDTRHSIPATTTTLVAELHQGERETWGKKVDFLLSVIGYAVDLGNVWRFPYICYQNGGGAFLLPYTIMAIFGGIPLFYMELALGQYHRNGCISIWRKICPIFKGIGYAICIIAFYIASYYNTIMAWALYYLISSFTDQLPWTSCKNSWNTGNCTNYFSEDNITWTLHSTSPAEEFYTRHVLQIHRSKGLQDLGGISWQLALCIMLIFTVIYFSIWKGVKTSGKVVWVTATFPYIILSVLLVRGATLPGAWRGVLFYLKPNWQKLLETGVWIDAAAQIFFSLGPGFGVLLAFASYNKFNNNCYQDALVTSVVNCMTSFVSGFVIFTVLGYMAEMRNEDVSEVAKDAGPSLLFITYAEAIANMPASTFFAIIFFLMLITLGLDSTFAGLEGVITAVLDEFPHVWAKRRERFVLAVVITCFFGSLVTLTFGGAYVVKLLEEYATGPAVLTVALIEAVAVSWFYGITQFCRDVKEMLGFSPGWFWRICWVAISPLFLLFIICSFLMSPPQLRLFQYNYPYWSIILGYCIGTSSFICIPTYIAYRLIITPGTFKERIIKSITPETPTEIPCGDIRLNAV

For `CNC(C)Cc1ccc2c(c1)OCO2` (stereo not shown) [MDMA, 3,4-methylenedioxymethamphetamine], the “Observed time to half-maximal subjective drug effect” value (healthy subjects [1]; after drug administration) was 44 ± 4 min, the “VAS Any drug effect, Emax” value (healthy subjects [1]; [15]) was 86.69±3.57 and the “VAS Closeness, Emax” value (healthy subjects [1]; [15]) was 27.31±3.87. The “VAS Drug high, Emax” value (healthy subjects [1]; [15]) was 87.81±4.85, the “VAS Drug liking, Emax” value (healthy subjects [1]; [15]) was 90.69±4.82 and the “VAS Good drug effect, Emax” value (healthy subjects [1]; [15]) was 89.38±4.67. For the same compound, the “VAS Open, Emax” value (healthy subjects [1]; [15]) was 32.16±4.29, the “VAS Stimulated, Emax” value (healthy subjects [1]; [15]) was 76.31±6.84 and the “VAS Talkative, Emax” value (healthy subjects [1]; [15]) was 28.81±5.12. For the same compound, the “AMRS Activity, Emin” value (healthy subjects [2]) was −4.69±1.04, the “AMRS Dreaminess, Emax” value (healthy subjects [2]) was 2.94±0.66 and the “AMRS Emotional excitation, Emax” value (healthy subjects [2]) was 4.94±0.97. For the same compound, the “AMRS Extroversion, Emax” value (healthy subjects [2]) was 3.50±0.61, the “AMRS Introversion, Emax” value (healthy subjects [2]) was 2.62±0.65 and the “AMRS Well-being, Emax” value (healthy subjects [2]) was 7.06±1.01. The “Effect on ASC sum score, OB, AED and VR dimensions” value (healthy subjects [3]) was “significantly increased”, the “Circulating Epinephrine, Emax” value (healthy subjects [4]) was 0.50 ± 0.12 nM and the “Circulating Norepinephrine, Emax” value (healthy subjects [4]) was 0.44 ± 0.12 nM. The “DPB, Emax” value (healthy subjects [5]; diastolic blood pressure) was 22.13±2.08 mm Hg, the “MAP, Emax” value (healthy subjects [5]; mean arterial pressure) was 21.76±2.73 mm Hg and the “Heart rate, Emax” value (healthy subjects [5]) was 26.06±2.77 beats/min. The “SBP, Emax” value (healthy subjects [5]; systolic blood pressure) was 29.94±3.41 mm Hg, the “Body temperature, Emax” value (healthy subjects [5]; tympanic) was 0.54±0.07 °C and the “List of Complaints (total score), Acute adverse effects” value (healthy subjects [6]; at 3 h, change from baseline, mean±SEM, 16 subjects) was 5.56±1.72. The “List of Complaints (total score), Sub-acute adverse effects” value (healthy subjects [6]; at 24 h, change from baseline, mean±SEM, 16 subjects) was 3.88±1.09, the Adverse effects produced (healthy subjects [6]; clinical study) was “sweating, difficulty concentrating, thirst, and lack of appetite” and the “Cell integrity after treatment” value (HEK 293 cells) was “confirmed”. For the same compound, the “Ex vivo binding (IC50%) NET” value (NET [7]) was 23.4±0.7%, the “Ex vivo binding (IC50%) SERT” value (SERT) was greater than 25% and the “Ex vivo binding (IC50%) DAT” value (DAT [8]) was greater than 25%. The “Mean duration of subjective and cardiovascular effects” value [9] was 3.5 h, the “Time within which effects completely subside” value [9] was 5 to 6 h and the Ki (DAT [10]) was 16.7 µM. The T1/2 ([11]; 100 -125 mg dose) was 8 to 9 h, the “Increase of MDMA plasma levels” value ([11]; pretreatment with paroxetine) was 30% and the Tmax ([11]; single dose) was 2 to 2.4 h. For the same compound, the Ki (NET [12]) was 22.4 ± 14.6 µM, the Ki (DAT [13]) was 6.52 ± 2.24 µM and the Ki (NET [14]) was 0.47 µM. For the same compound, the “Potency of NET inhibition relative to SERT” value (NET [14]; uptake inhibition) was “three-fold more potently”.
